Source: PubChem BioAssay (NCI)
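Assay format: 96-well plates, 48-hour exposure. TGI denotes the concentration required for complete inhibition of growth.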

What was measured:
Test in all cases: inhibition of tumour cell growth, NCI panel, 48 h
A549 NSCLC = system: A549 NSCLC
SK-MEL-28 melanoma = system: SK-MEL-28 melanoma
SNB-19 CNS = system: SNB-19 CNS
HOP-62 NSCLC = system: HOP-62 NSCLC
MCF7 breast = system: MCF7 breast
MALME-3M melanoma = system: MALME-3M melanoma
OVCAR-3 ovarian = system: OVCAR-3 ovarian
SNB-75 CNS = system: SNB-75 CNS
K-562 leukemia = system: K-562 leukemia
OVCAR-8 ovarian = system: OVCAR-8 ovarian

Compound COc1ccc(-c2c3c(nc4nc(SC)nc(SC)c24)CCCC3)cc1OC has a TGI (A549 NSCLC) greater than 100 µM, a TGI (SK-MEL-28 melanoma) greater than 100 µM and a TGI (SNB-19 CNS) greater than 100 µM. It also gave a TGI (HOP-62 NSCLC) greater than 100 µM, a TGI (MCF7 breast) greater than 100 µM and a TGI (MALME-3M melanoma) greater than 100 µM. The TGI (OVCAR-3 ovarian) was greater than 100 µM, the TGI (SNB-75 CNS) was greater than 100 µM and the TGI (K-562 leukemia) was greater than 100 µM.
Work on CCc1nnc(-c2nsc3ccccc23)s1 yielded a TGI (A549 NSCLC) greater than 100 µM, a TGI (SK-MEL-28 melanoma) greater than 100 µM and a TGI (SNB-19 CNS) greater than 100 µM. The TGI (OVCAR-8 ovarian) was greater than 100 µM, the TGI (HOP-62 NSCLC) was greater than 100 µM and the TGI (OVCAR-3 ovarian) was greater than 100 µM. It also gave a TGI (SNB-75 CNS) greater than 100 µM and a TGI (K-562 leukemia) greater than 100 µM.
For Cc1ccc(Nc2nc(NS(=O)(=O)c3cc(C(=O)Nc4ccc(Cl)cc4)c(Cl)cc3S)n[nH]2)cc1, the TGI (A549 NSCLC) was greater than 100 µM, the TGI (SK-MEL-28 melanoma) was greater than 100 µM and the TGI (SNB-19 CNS) was greater than 100 µM. The TGI (OVCAR-8 ovarian) was greater than 100 µM, the TGI (HOP-62 NSCLC) was greater than 100 µM and the TGI (MCF7 breast) was greater than 100 µM. The TGI (MALME-3M melanoma) was greater than 100 µM, the TGI (OVCAR-3 ovarian) was greater than 100 µM and the TGI (SNB-75 CNS) was greater than 100 µM. It also gave a TGI (K-562 leukemia) greater than 100 µM.
For O=C1OCC/C1=C/c1ccc(N=Nc2c(O)ccc3ccccc23)cc1, the TGI (A549 NSCLC) was 44.7 µM, the TGI (SK-MEL-28 melanoma) was 38.4 µM and the TGI (SNB-19 CNS) was greater than 100 µM. The TGI (OVCAR-8 ovarian) was 72 µM, the TGI (HOP-62 NSCLC) was 45.8 µM and the TGI (MCF7 breast) was greater than 100 µM. It also gave a TGI (MALME-3M melanoma) of 32.3 µM, a TGI (OVCAR-3 ovarian) of 34.4 µM and a TGI (SNB-75 CNS) of 49.2 µM. It also gave a TGI (K-562 leukemia) greater than 100 µM.
COc1cc2c(cc1OC)C(C)N(C)c1c-2c(OC(C)=O)cc2cc(OC)c(OC)cc12 (stereo not given) showed a TGI (A549 NSCLC) greater than 69.2 µM, a TGI (SK-MEL-28 melanoma) greater than 60.1 µM and a TGI (SNB-19 CNS) greater than 100 µM. It also gave a TGI (OVCAR-8 ovarian) of 33.2 µM, a TGI (HOP-62 NSCLC) greater than 79.7 µM and a TGI (MCF7 breast) of 40.2 µM. For the same compound, the TGI (MALME-3M melanoma) was 14.8 µM, the TGI (OVCAR-3 ovarian) was greater than 100 µM and the TGI (SNB-75 CNS) was greater than 79 µM. The TGI (K-562 leukemia) was greater than 100 µM.
CCOP(=O)(CN=C(c1ccccc1)c1ccccc1)OCC gave a TGI (A549 NSCLC) greater than 100 µM, a TGI (SK-MEL-28 melanoma) greater than 100 µM and a TGI (SNB-19 CNS) greater than 100 µM. The TGI (OVCAR-8 ovarian) was greater than 100 µM, the TGI (HOP-62 NSCLC) was greater than 100 µM and the TGI (MCF7 breast) was greater than 100 µM. For the same compound, the TGI (OVCAR-3 ovarian) was greater than 100 µM, the TGI (SNB-75 CNS) was greater than 100 µM and the TGI (K-562 leukemia) was greater than 100 µM.
With NC(=S)N/N=C1\c2ccccc2CCC1CCC1(O)CCc2ccccc2C1=O (stereo not given) the TGI (A549 NSCLC) was greater than 100 µM, the TGI (SK-MEL-28 melanoma) was 45.8 µM and the TGI (SNB-19 CNS) was greater than 100 µM. For the same compound, the TGI (OVCAR-8 ovarian) was 35.1 µM, the TGI (HOP-62 NSCLC) was greater than 100 µM and the TGI (MCF7 breast) was 46.4 µM. The TGI (MALME-3M melanoma) was 36.7 µM, the TGI (OVCAR-3 ovarian) was 36.3 µM and the TGI (SNB-75 CNS) was 45 µM.
CC1OC1C(=O)C1(O)C(C)C(O)C23OC2(C(O)c2c(O)cccc2C3=O)C1O (stereo not given) showed a TGI (A549 NSCLC) of 0.519 µM, a TGI (SK-MEL-28 melanoma) of 0.682 µM and a TGI (SNB-19 CNS) of 0.742 µM. For the same compound, the TGI (OVCAR-8 ovarian) was 1.72 µM, the TGI (HOP-62 NSCLC) was 0.462 µM and the TGI (MCF7 breast) was 2.01 µM. The TGI (MALME-3M melanoma) was 0.247 µM, the TGI (OVCAR-3 ovarian) was 0.352 µM and the TGI (SNB-75 CNS) was 0.747 µM. The TGI (K-562 leukemia) was 0.776 µM.
